In the experiment the target is T1, mouse glycolate oxidase (mGO) (Mus musculus, UniProt Q9WU19).
T1 construct: His6 (N); made in house; host or cells: E. coli BL21 (DE3)
T1 sequence (Q9WU19 1-370): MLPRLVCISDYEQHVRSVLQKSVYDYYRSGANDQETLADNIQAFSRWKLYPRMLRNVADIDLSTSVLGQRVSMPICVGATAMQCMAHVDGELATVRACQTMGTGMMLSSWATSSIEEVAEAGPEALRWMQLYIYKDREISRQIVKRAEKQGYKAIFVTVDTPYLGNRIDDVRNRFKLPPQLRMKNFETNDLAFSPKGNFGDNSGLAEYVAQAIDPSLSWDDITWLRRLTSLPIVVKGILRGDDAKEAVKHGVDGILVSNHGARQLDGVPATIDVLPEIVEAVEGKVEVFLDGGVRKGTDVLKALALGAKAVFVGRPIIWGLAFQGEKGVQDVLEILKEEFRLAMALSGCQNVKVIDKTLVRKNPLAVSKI
The experiment can be described thus: In vitro inhibition of mouse glycolate oxidase (mGO), HRP-coupled Trinder reaction. In kind it is biochemical. As to conditions: compound tested at 100 μM; 40 mM glycolic acid as substrate; activity calculated at 1 minute. As for the experimental part:
Protein expression. BL21 (DE3) E. coli transformed with recombinant pET-15b expression vector containing mouse Hao1 cDNA with an N-terminal His6 tag was grown in LB medium in the presence of 0.1 mg/mL ampicillin. For purification of recombinant mGO expressed in BL21 E. coli, bacteria pellets were thawed and re-suspended in 2 mL lysis buffer (50 mM NaH2PO4, 300 mM NaCl, 10 mM imidazole, 50 μM flavin mononucleotide (FMN), pH 7.5), and then treated for 30 minutes with 1 mM phenylmethylsulfonyl fluoride (PMSF) for protease inhibition, 0.1% Triton X-100 and 0.2 mg/mL lysozyme to break cellular membranes. After sonication, cells were centrifuged and the supernatant containing the total cellular extract (pre-column fraction) was loaded into a Ni-NTA agarose column, and incubated for 30 minutes at 4° C. to allow binding. The column was washed with two bed volumes of lysis buffer with 20 mM imidazole to eliminate unbound proteins (wash fraction). mGO was eluted using the same buffer containing 300 mM imidazole. Fractions containing purified GO were dialyzed against 300 mL of dialysis buffer (50 mM NaH2PO4, 300 mM NaCl, pH 7.5) at 4° C. with agitation overnight, and then kept at 4° C. in darkness. Protein was quantified by the bicinchoninic acid (BCA) assay.
Inhibition assays. Enzymatic activity of mGO was determined in the presence of glycolate as substrate (40 mM glycolic acid) and phosphate buffer (50 mM KPO4, 0.1 mM EDTA, pH 7). The production of glyoxylate was indirectly measured by the quantification of hydrogen peroxide formed during the first oxidation reaction. This hydrogen peroxide reacted with 4.9 mM 4-aminoantipyrine and 0.1 mM sulphonated […] in a coupled horseradish peroxidase (HRP) reaction that yields a quinoneimine dye (FIG. 1) measured at 515 nm (Trinder reaction). Enzymatic activity was calculated at 1 minute after initiation of the Trinder reaction.
As to `Cc1onc(C(=O)O)c1Cc1ccc(-c2ccc(C#N)cc2)cc1` [Compound 1, 4-((4′-Cyano-[1, 1′-biphenyl]-4-yl)methyl)-5-methylisoxazole-3-carboxylic Acid], the inhibition at 100 µM is 30 to 60%. With `Cc1onc(C(=O)O)c1Cc1ccc(Br)cc1` [Compound 2, 4-(4-Bromobenzyl)-5-methylisoxazole-3-carboxylic Acid], the inhibition at 100 µM is < 30%. For `Cc1onc(C(=O)O)c1Cc1ccc(Oc2ccccc2)cc1` [Compound 6, 5-Methyl-4-(4-phenoxybenzyl) isoxazole-3-carboxylic Acid] the value was 30 to 60%. For `Cc1[nH]nc(C(=O)O)c1Cc1ccc(-c2ccc(C#N)cc2)cc1` [Compound 7, 4-((4′-Cyano-[1,1′-biphenyl]-4-yl)methyl)-5-methyl-H-pyrazole-3-carboxylic Acid] the value was 30 to 60%.

Take `Cc1[nH]nc(C(=O)O)c1Cc1ccc(Br)cc1` [Compound 8, 4-(4-Bromobenzyl)-5-methyl-1H-pyrazole-3-carboxylic Acid]: the inhibition at 100 µM is < 30%. For `Cc1[nH]nc(C(=O)O)c1Cc1ccc(Oc2ccccc2)cc1` [Compound 10, 5-Methyl-4-(4-phenoxybenzyl)-1H-pyrazole-3-carboxylic Acid] the value was 30 to 60%; for `Cc1[nH]nc(C(=O)O)c1Cc1ccc(F)cc1` [Compound 12, 5-Methyl-4-(4-fluorobenzyl) 1H-pyrazole-3-carboxylic Acid], < 30%. For `Cc1snc(C(=O)O)c1Cc1ccc(F)cc1` [Compound 13, 4-(4-Fluorobenzyl)-5-methylisothiazole-3-carboxylic Acid] the value was < 30%. For `N#Cc1ccc(-c2ccc(Cc3snnc3C(=O)O)cc2)cc1` [Compound 14, 5-((4′-Cyano-[1,1′-biphenyl]-4-yl)methyl)-1,2,3-thiadiazole-4-carboxylic Acid] the value was 30 to 60%; for `O=C(O)c1nnsc1Cc1ccc(Br)cc1` [Compound 15, 5-(4-Bromobenzyl)-1,2,3-thiadiazole-4-carboxylic Acid], > 60%; for `O=C(O)c1nnsc1Cc1ccc(F)cc1` [Compound 16, 5-(4-Fluorobenzyl)-1,2,3-thiadiazole-4-carboxylic Acid], < 30%.

For `O=C(O)c1nnsc1Cc1ccc(Oc2ccccc2)cc1` [Compound 18, 5-(4-Phenoxybenzyl)-1,2,3-thiadiazole-4-carboxylic Acid], the inhibition at 100 µM is 30 to 60%. For `O=C(O)c1nnccc1Cc1ccc(F)cc1` [Compound 19, 4-(4-Fluorobenzyl) pyridazine-3-carboxylic Acid] the value was 30 to 60%; for `O=C(O)c1nnsc1Nc1ccc(-n2cccn2)cc1` [Compound 20, 5-((4-(1H-Pyrazol-1-yl)phenyl)amino)-1,2,3-thiadiazole-4-carboxylic Acid], > 60%; for `O=C(O)c1nnsc1Nc1ccc(F)cc1` [Compound 22, 5-((4-Fluorophenyl)amino)-1,2,3-thiadiazole-4-carboxylic Acid], > 60%. For `O=C(O)c1nnsc1Nc1cccc(Br)c1` [Compound 23, 5-((3-Bromophenyl)amino)-1,2,3-thiadiazole-4-carboxylic Acid] the value was > 60%; for `O=C(O)c1nnsc1Nc1ccc(Br)cc1` [Compound 24, 5-((4-Bromophenyl)amino)-1,2,3-thiadiazole-4-carboxylic Acid], > 60%; for `Cc1onc(C(=O)O)c1NCc1ccc(F)cc1` [Compound 29, 4-((4-Fluorobenzyl)amino)-5-methylisoxazole-3-carboxylic Acid], 30 to 60%. For `Cc1onc(C(=O)O)c1Nc1ccc(C#N)cc1` [Compound 30, 4-((4-Cyanophenyl)amino)-5-methylisoxazole-3-carboxylic Acid] the value was < 30%; for `Cc1onc(C(=O)O)c1NCc1ccc(Oc2ccc(C#N)cc2)cc1` [Compound 31, 4-((4-(4-Cyanophenoxy)benzyl)amino)-5-methylisoxazole-3-carboxylic Acid], 30 to 60%; for `Cc1onc(C(=O)O)c1N(Cc1ccc(Oc2ccc(C#N)cc2)cc1)Cc1ccc(Oc2ccc(C#N)cc2)cc1` [Compound 32, 4-(bis(4-(4-Cyanophenoxy)benzyl)amino)-5-methylisoxazole-3-carboxylic Acid], > 60%. Consider `Cc1snc(C(=O)O)c1Nc1ccc(-c2ccc(C#N)cc2)cc1` [Compound 33, 4-((4′-Cyano-[1,1′-biphenyl]-4-yl)amino)-5-methylisothiazole-3-carboxylic Acid], for which the inhibition at 100 µM was > 60%. Turning to `Cc1snc(C(=O)O)c1Nc1ccc(Br)cc1` [Compound 34, 4-((4-Bromophenyl)amino)-5-methylisothiazole-3-carboxylic Acid], the inhibition at 100 µM was 30 to 60%.

Regarding `Cc1snc(C(=O)O)c1Nc1cccc(Br)c1` [Compound 35, 4-((3-Bromophenyl)amino)-5-methylisothiazole-3-carboxylic Acid], the inhibition at 100 µM is 30 to 60%. For `Cc1snc(C(=O)O)c1Nc1cccc(-c2ccc(C#N)cc2)c1` [Compound 36, 4-((4′-Cyano-[1,1′-biphenyl]-3-yl)amino)-5-methylisothiazole-3-carboxylic Acid] the value was 30 to 60%; for `Cc1snc(C(=O)O)c1NCc1ccc(F)cc1` [Compound 37, 4-((4-Fluorobenzyl)amino)-5-methylisothiazole-3-carboxylic Acid], 30 to 60%; for `Cc1[nH]nc(C(=O)O)c1Nc1ccc(-c2ccc(C#N)cc2)cc1` [Compound 39, 4-((4′-Cyano-[1,1′-biphenyl]-4-yl)amino)-5-methyl-H-pyrazole-3-carboxylic Acid], 30 to 60%. On to `Cc1[nH]nc(C(=O)O)c1Nc1ccc(Br)cc1` [Compound 40, 4-((4-Bromophenyl)amino)-5-methyl-1H-pyrazole-3-carboxylic Acid], for which the inhibition at 100 µM was < 30%. As for `Cc1[nH]nc(C(=O)O)c1Nc1cccc(Br)c1` [Compound 41, 4-((3-Bromophenyl)amino)-5-methyl-1H-pyrazole-3-carboxylic Acid], the inhibition at 100 µM was 30 to 60%. For `Cc1[nH]nc(C(=O)O)c1Nc1cccc(-c2ccc(C#N)cc2)c1` [Compound 42, 4-((4′-Cyano-[1,1′-biphenyl]-3-yl)amino)-5-methyl-1H-pyrazole-3-carboxylic Acid] the value was 30 to 60%; for `Cc1n[nH]c(C(=O)O)c1NCc1ccc(F)cc1` [Compound 43, 4-((4-Fluorobenzyl)amino)-3-methyl-1H-pyrazole-5-carboxylic Acid], 30 to 60%.

With `Cc1n[nH]c(C(=O)O)c1N(Cc1ccc(F)cc1)Cc1ccc(F)cc1` [Compound 44, 4-(bis(4-Fluorobenzyl)amino)-3-methyl-1H-pyrazole-5-carboxylic Acid], the inhibition at 100 µM is 30 to 60%. For `Cc1[nH]nc(C(=O)O)c1Nc1ccc(C#N)cc1` [Compound 45, 4-((4-Cyanophenyl)amino)-5-methyl-1H-pyrazole-3-carboxylic Acid] the value was 30 to 60%. For `Cc1onc(C(=O)O)c1Sc1ccc(F)cc1` [Compound 46, 4-((4-Fluorophenyl)thio)-5-methylisoxazole-3-carboxylic Acid] the value was 30 to 60%.
